Measured values reported in patent US7528225B2, “Peptide epitopes of apolipoprotein B” (Forskarpapatent I Syd, priority 2001, dated 2009).
“Also recorded” adds a separate entry of the source.

Key:
[1] = system: atherosclerosis in apo E knockout mice; assay: Peptide immunization of Apo E (−/−) mice on high cholesterol diet: atherosclerotic plaque size and composition; details: for Atherosclerotic plaque in the descending aorta, en face oil red O, in comparison to control (in words): Apo E (−/−) mice vs Alum control; for mean collagen content in the aortic sinus plaques: Trichrome staining; for mean collagen content in the aortic sinus plaques / Total plaque size in aortic sinus / % of plaque in aorta (flat prep.) / Oil red O (+) area (% of aortic sinus plaque) / Aortic arch plaque size: mean ± Std; for Effect on atherosclerosis in the aorta: immunization of apo E knockout mice with single peptide sequence or mixture (Table B); for Total plaque size in aortic sinus: Apo E (−/−) mice, sacrifice at 25 weeks; for % of plaque in aorta (flat prep.): descending thoracic and abdominal aorta, en face, oil red O; for Oil red O (+) area (% of aortic sinus plaque): lipid content of aortic sinus plaque
Method: Apo E (−/−) mice received subcutaneous primary immunization at 6-7 weeks of age, followed by an intra-peritoneal booster 3 weeks later. Mice were fed high cholesterol diet from the onset of immunization and continued until sacrifice at the age of 25 weeks.
Alum was used as immunoadjuvant and mixed with peptide conjugate with 1:1 dilution in volume. The amount of peptide in each immunization was 33 μg/100 μl per injection.
Apo E (−/−) mice from the Jackson Laboratories (Bar Harbor, Me.) received subcutaneous primary immunization at 6-7 weeks of age, followed by an intra-peritoneal booster 3 weeks later. Mice were fed high cholesterol diet from the onset of immunization and continued until sacrifice at the age of 25 weeks. Blood samples were collected 2 weeks after booster and at the time of sacrifice. Mice receiving Alum served as control. […] At the time of sacrifice, mice were anesthetized by inhalation Enflurane. Plasma was obtained by retro-orbital bleeding prior to sacrifice.
To evaluate the effect of peptide immunization on atherosclerosis formation, the plaque size at aortic sinus was assessed, aortic arch and descending thoracic and abdominal aorta. After the heart and aortic tree were perfused with normal saline at physiological pressure, the heart and proximal aorta were excised and embedded in OCT compound (Tissue-Tek) and frozen sectioned. Serial 6-μm-thick sections were collected from the appearance of at least 2 aortic valves to the disappearance of the aortic valve leaflets for aortic sinus plaque evaluation. Typically 3 consecutive sections were on one slide and a total of 25-30 slides were collected from one mouse and every fifth slide was grouped for staining. Ascending aorta and aortic arches upto left subclavian artery were also sectioned and processed similarly. Descending thoracic and abdominal aorta were processed separately for en face evaluation of plaque formation after oil red O staining.
Chicken egg albumin (Sigma) in a concentration of 0.8 g/ml water was mixed 1:1 with glycerol. Sodium azide was added to make a final concentration of sodium azide 0.2%. After descending thoracic and abdominal aorta was cleaned off surrounding tissue and fat, the segment of aorta from left subclavian artery to the level of renal artery was then carefully removed for overnight fixation in Histochoice (Amresco). Aorta was then carefully opened longitudinally and placed with luminal side up on a slide freshly coated with egg albumin solution. After albumin solution became dry, the aorta was stained with Oil red O to assess the extent of atherosclerosis with computer-assisted histomorphometry.

[2] = system: Apo E (−/−) mice; assay: Antibody titer against immunized peptide after immunization (mouse serum ELISA); assay type: in vivo; details: mouse serum 1/50; immunized group; mean ± Std
Method: Antibody titer measurement. To measure the antibody response after peptide immunization, an ELISA was developed. Antibody titer against immunized peptide was measured using blood collected at 2 weeks after booster and at sacrifice. Antibody response against 3 peptides was also determined in Alum group at the same time-points. In brief, native synthetic peptides diluted in PBS pH 7.4 (20 μg/ml) were absorbed to microtiter plate wells (Nunc MaxiSorp, Nunc, Roskilde, Denmark) in an overnight incubation at 4° C. […] After rinsing, deposition of antibodies directed to the peptides was detected by using biotinylated rabbit anti-mouse Ig antibodies (Dako A/S, Glostrup, Denmark) appropriately diluted in TBS-T. After another incubation for 2 h at room temperature the plates were washed and the bound biotinylated antibodies were detected by alkaline phosphatase conjugated streptavidin (Sigma), incubated for 2 h at room temperature. Using phosphatase substrate kit (Pierce) developed the colour reaction and the absorbance at 405 nm was measured after 1 h of incubation at room temperature. Mean values were calculated after the background was subtracted.

ATRFKHLRKYTYNYQAQSSS [Peptide 2]
Atherosclerotic plaque in the descending aorta, en face oil red O, in comparison to control (in words) ([1]; listed as peptide No. 2): substantially reduced atherosclerosis; also recorded: significantly reduced atherosclerotic burden
mean collagen content in the aortic sinus plaques [1]: 40.0±7.7%
Effect on atherosclerosis in the aorta [1]: −67.7%
macrophage infiltration in the aortic sinus plaques (MOMA-2) ([1]; immunohistochemistry): significantly reduced macrophage infiltration
Increase of antibody titer against immunized peptide after immunization [2]: 2.4±1.0 fold

EEEMLENVSLVCPKDATRFK [Peptide 1]
Atherosclerotic plaque in the descending aorta, en face oil red O, in comparison to control (in words) ([1]; listed as Peptide No 1): did not produce a significant reduction in atherosclerosis
Total plaque size in aortic sinus [1]: 0.48 ± 0.14 mm^2
mean collagen content in the aortic sinus plaques [1]: 35.6±8.5%
% of plaque in aorta (flat prep.) [1]: 17 ± 4.3%
Effect on atherosclerosis in the aorta [1]: −15.4%
Oil red O (+) area (% of aortic sinus plaque) [1]: 32.0 ± 8.1%
Aortic arch plaque size [1]: 0.054 ± 0.027 mm^2
Effect of immunisation on the development of atherosclerosis (in words) ([1]; summary statement): lacks total effect
Increase of antibody titer against immunized peptide after immunization [2]: 6.1±3.1 fold

FPDLGQEVALNANTKNQKIR [Peptide 240]
Effect on atherosclerosis in the aorta [1]: 0%

HTFLIYITELLKKLQSTTVM [Peptide 301]
Atherosclerotic plaque in the descending aorta, en face oil red O, in comparison to control (in words) [1]: substantially reduced atherosclerosis
Total plaque size in aortic sinus [1]: 0.46 ± 0.16 mm^2
% of plaque in aorta (flat prep.) [1]: 8.9 ± 2.2 %
Effect on atherosclerosis in the aorta [1]: −55.2%
Oil red O (+) area (% of aortic sinus plaque) [1]: 23.8 ± 4.1%
Aortic arch plaque size [1]: 0.050 ± 0.024 mm^2

IEIGLEGKGFEPTLEALFGK [Peptide 45]
Effect on atherosclerosis in the aorta [1]: −47.4%

KTTKQSFDLSVKAQYKKNKH [Peptide 210]
Effect on atherosclerosis in the aorta [1]: −57.9%

VISIPRLQAEARSEILAHWS [Peptide 74]
Effect on atherosclerosis in the aorta [1]: −31.0%
